Measurements taken from publication PMC9196629, “Synthesis, Characterization and Antitumor Mechanism Investigation of Heterometallic Ru(Ⅱ)-Re(Ⅰ) Complexes” (Frontiers in Chemistry, 2022).

How the values were obtained:
Assay type in all cases: cell-based, human
[1] = system: HeLa cells; experiment: Mitochondrial membrane potential (MMP) by Rh123 staining; settings: 6 h, confocal microscopy
Source text: Apoptosis is associated with a decrease in MMP ([Wu et al., 2022]), so we investigated the effects of RuRe-1 and RuRe-2 on MMP. A decrease in fluorescence intensity of rhodamine 123 (Rh123) can indicate the loss of MMP ([Ma et al., 2019]). […] The decline of MMP further confirmed that RuRe-1 and RuRe-2 could influence mitochondrial function and promote apoptosis.
FIGURE 6 RuRe-1 and RuRe-2 induced the loss of MMP analyzed by confocal microscopy with Rh123 staining (λ ex = 488 nm, λ em = 530 ± 20 nm). The incubation time of the compounds was 6 h. Scale bar: 20 μm.
Measurement of MMP. After HeLa cells were adhered to the confocal dishes, the medium was replaced with medium containing the indicated concentrations of RuRe-1 and RuRe-2 for 6 h. Subsequently, the medium was aspirated and the cells were washed three times with PBS, then stained with Rh123 (1 μg/mL) for 30 mins. After washing with PBS twice, cells were observed under a confocal microscopy (λex = 488 nm, λem = 530 ± 20 nm).

[2] = system: HeLa cells; experiment: Annexin V-FITC/PI double-staining apoptosis assay by flow cytometry; settings: 24 h, control 1.81%
Source text: The ability of RuRe-1 and RuRe-2 to induce apoptosis in HeLa cells was further verified using Annexin V-FITC/PI (FITC: fluorescein isothiocyanate; PI: propidium iodide) double-staining. In the early stage of apoptosis, the surface of the cell membrane is […], at which point the phosphatidylserine on the surface of the apoptotic cell flips from the inner cell membrane to the outer cell membrane, where it can be labelled by Annexin V ([Jan and Chaudhry, 2019]). The membrane permeability of PI is poor and thus only necrotic cells can be labelled ([Zec et al., 2014]).
FIGURE 3 RuRe-1 and RuRe-2 induced HeLa cells apoptosis measured by flow cytometry with Annexin V/PI staining. The incubation time of the compounds was 24 h. […]

[3] = system: HeLa cells; experiment: Hoechst 33342 staining of nuclear morphology; settings: 24 h
Description: First, changes in cell morphology of HeLa cells induced by RuRe-1 and RuRe-2 were examined with 2'-(4-ethoxyphenyl)-5-(4-methyl-1-piperazinyl)-2,5′-bi-1H-benzimidazole trihydrochloride (Hoechst 33342) staining. Hoechst 33342 is a blue fluorescent dye that can penetrate cell membranes and is commonly used to stain cell nuclei ([Tian et al., 2018]).
FIGURE 2 RuRe-1 and RuRe-2 induced HeLa cells apoptosis measured by confocal microscopy with Hoechst 33342 staining (λ ex = 405 nm, λ em = 460 ± 20 nm). The incubation time of the compounds was 24 h. Arrows indicate apoptotic morphological nuclei. Scale bar: 20 μm.
Hoechst 33342 staining assay. After HeLa cells were adhered to the confocal dishes, the medium was replaced with a medium containing the indicated concentrations of RuRe-1 and RuRe-2. After incubation for 24 h, the medium was aspirated and the cells were washed three times with PBS, then fixed with 4% paraformaldehyde. Subsequently, cells were labelled 10 mins with Hoechst 33342 (5 μg/mL) and observed immediately under confocal microscope (λex = 405 nm, λem = 460 ± 20 nm).

SMILES: F[P-](F)(F)(F)(F)F.F[P-](F)(F)(F)(F)F.F[P-](F)(F)(F)(F)F.[C-]#[O+].[C-]#[O+].[C-]#[O+].[Re+].[Ru+2].c1ccc(-c2ccccn2)nc1.c1ccc(-c2ccccn2)nc1.c1ccc(-c2ccnc3c2ccc2c(-c4ccccc4)ccnc23)cc1.c1cnc2c(c1)c1nc(-c3ccncc3)[nH]c1c1cccnc12 [RuRe-1, [Ru(bpy)2LRe(CO)3(DIP)](PF6)3]
- MMP (green fluorescence intensity of Rh123) [1]: decrease in the green fluorescence intensity of Rh123 in a dose-dependent manner
- percentage of apoptotic cells (early apoptotic + late apoptotic) ([2]; 12.4 μM): 22.38%
- nuclear morphology (Hoechst 33342) [3]: typical apoptotic characteristics

SMILES: F[P-](F)(F)(F)(F)F.F[P-](F)(F)(F)(F)F.F[P-](F)(F)(F)(F)F.[C-]#[O+].[C-]#[O+].[C-]#[O+].[Re+].[Ru+2].c1ccc(-c2ccnc3c2ccc2c(-c4ccccc4)ccnc23)cc1.c1cnc2c(c1)c1nc(-c3ccncc3)[nH]c1c1cccnc12.c1cnc2c(c1)ccc1cccnc12.c1cnc2c(c1)ccc1cccnc12 [RuRe-2, [Ru(phen)2LRe(CO)3(DIP)](PF6)3]
- MMP (green fluorescence intensity of Rh123) [1]: decrease in the green fluorescence intensity of Rh123 in a dose-dependent manner
- percentage of apoptotic cells (early apoptotic + late apoptotic) ([2]; 10.0 μM): 22.26%
- nuclear morphology (Hoechst 33342) [3]: typical apoptotic characteristics
